Six compounds from ChEMBL document CHEMBL1126415, “Phosphonate derivatives of N9-benzylguanine: a new class of potent purine nucleoside phosphorylase inhibitors” (Bioorg Med Chem Lett, 1992) can be followed below.

Assay [1] has as its target T1, Purine nucleoside phosphorylase (Bos taurus, UniProt P55859).
T1 sequence (P55859 whole entry): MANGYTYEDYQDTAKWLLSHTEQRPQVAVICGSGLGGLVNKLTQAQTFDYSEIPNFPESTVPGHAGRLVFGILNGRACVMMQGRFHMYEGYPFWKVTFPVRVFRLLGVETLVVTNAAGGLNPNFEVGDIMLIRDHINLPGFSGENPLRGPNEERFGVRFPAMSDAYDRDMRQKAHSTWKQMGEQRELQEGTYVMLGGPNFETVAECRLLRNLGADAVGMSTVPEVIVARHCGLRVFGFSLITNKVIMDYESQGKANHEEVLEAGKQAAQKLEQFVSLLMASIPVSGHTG
Briefly: Inhibitory concentration against calf spleen purine nucleoside phosphorylase in the presence of 50 mM (pi) […].

Assay [2] deals with T1, Purine nucleoside phosphorylase. The assay can be described thus: Inhibitory activity against calf spleen purine nucleoside phosphorylase in the presence of 1 mM (pi) […].
In assay [3] the target is T2, Purine nucleoside phosphorylase (Homo sapiens, UniProt P00491).
T2 sequence (P00491 whole entry): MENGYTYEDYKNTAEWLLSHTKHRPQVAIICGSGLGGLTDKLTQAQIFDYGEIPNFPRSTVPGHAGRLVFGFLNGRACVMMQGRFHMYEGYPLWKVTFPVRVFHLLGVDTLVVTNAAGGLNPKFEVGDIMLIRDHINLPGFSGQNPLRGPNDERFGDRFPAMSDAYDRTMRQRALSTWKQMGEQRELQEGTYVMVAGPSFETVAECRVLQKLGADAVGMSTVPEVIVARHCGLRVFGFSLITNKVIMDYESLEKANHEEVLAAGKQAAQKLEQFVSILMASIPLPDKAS
Briefly: Inhibitory concentration against human erythrocytic purine nucleoside phosphorylase in the presence of 50 mM (pi) […].

Assay [4] addresses T2, Purine nucleoside phosphorylase. Briefly: Inhibitory activity against human erythrocytic purine nucleoside phosphorylase in the presence of 1 mM (pi) […].
For assay [5] the target is unchanged. Briefly: Tested for its inhibitory activity against human erythrocytic purine nucleoside phosphorylase.

pIC50, pKi: −log10 of the molar value.

One may read the pIC50 as the IC50 on a negative log10 scale, so that one unit is a factor of ten. Broadly, the pKi is the Ki on a negative log10 scale, so that one unit is a factor of ten. As to `Nc1nc(O)c2ncn(Cc3ccccc3/C=C(\F)P(=O)(O)O)c2n1`, the pIC50 in assay [1] is 7.22. For the same compound, the pKi in assay [2] is 9.10.

`Nc1nc(O)c2ncn(Cc3ccccc3/C=C/P(=O)(O)O)c2n1`: the pIC50 in assay [3] was 6.81; in assay [1], 7.07. The pKi in assay [4] is 8.49.

Regarding `Nc1nc(O)c2ncn(Cc3ccccc3CC(F)(F)P(=O)(O)O)c2n1`, the pIC50 in assay [1] was 6.70.

Turning to `Nc1nc(O)c2ncn(Cc3ccccc3C(F)C(F)(F)P(=O)(O)O)c2n1` (stereo not given), the pIC50 is 7.07 in assay [3] and 7.00 in assay [1].

For the compound `Nc1nc2c(ncn2CCCCC(F)(F)P(=O)(O)O)c(=O)[nH]1`, the pKi in assay [5] is 7.74.

In assay [5], `Nc1nc(O)c2nc(N)n(Cc3ccccc3)c2n1` had a pKi of 6.70.
